In patent publication US9260425B2 (Genetech, Inc., priority 2011, dated 2016):

Target: Pim-1 (Homo sapiens (Human), UniProt P11309)
Assay: Pim kinase binding activity assay (Example 901), PIM-1 enzyme, Caliper microfluidic peptide phosphorylation
Assay type: biochemical
Conditions: 20 pM PIM-1, 10 μM ATP, 1 μM FAM-peptide, 90 minutes at room temperature
Protocol: Pim Kinase Binding Activity
A fluorescent-labeled Pim-specific peptide substrate, was custom synthesized by American Peptide Company (Sunnyvale, Calif.). Reaction Buffer contained 10 mM HEPES, pH 7.2, 10 mM MgCl2, 0.01% Tween 20, 2 mM DTT. Termination Buffer contained 190 mM HEPES, pH 7.2, 0.015% Brij-35, 0.2% Coating Reagent 3 (Caliper Life Sciences, Hopkinton, Mass.), 20 mM EDTA. Separation Buffer contained 100 mM HEPES, pH 7.2, 0.015% Brij-35, 0.1% Coating Reagent 3, 1:200 Coating Reagent 8 (Caliper Life Sciences, Hopkinton, Mass.), 10 mM EDTA and 5% DMSO.
PIM reactions were carried out in a final volume of 10 μL per well in a 384-well plate. A standard enzymatic reaction, initiated by the addition of 5 μL 2×ATP and test compound to 5 μL of 2× enzyme and FAM-peptide, contained 20 pM PIM-1, 50 pM PIM-2, or 55 pM PIM-3, 1 μM FAM-peptide, and 10 μM ATP, in Reaction Buffer. After 90 minutes of incubation at room temperature, the phosphorylation reaction was stopped by the addition of 10 μL Termination Buffer. The product and substrate in each independent reaction were separated on a 12-sipper microfluidic chip (Caliper Life Sciences, Hopkinton, Mass.) run on a Caliper LC3000® (Caliper Life Sciences, Hopkinton, Mass.). The separation of product and substrate was optimized by choosing voltages and pressure using Caliper's Optimizer software (Hopkinton, Mass.). […] The product and substrate fluorophore were excited at 488 nm and detected at 530 nm. Substrate conversion was calculated from the electropherogram using HTS Well Analyzer software (Caliper Life Sciences, Hopkinton, Mass.). Ki values for the test compound were calculated.

Sequence of Pim-1 (P11309 whole entry): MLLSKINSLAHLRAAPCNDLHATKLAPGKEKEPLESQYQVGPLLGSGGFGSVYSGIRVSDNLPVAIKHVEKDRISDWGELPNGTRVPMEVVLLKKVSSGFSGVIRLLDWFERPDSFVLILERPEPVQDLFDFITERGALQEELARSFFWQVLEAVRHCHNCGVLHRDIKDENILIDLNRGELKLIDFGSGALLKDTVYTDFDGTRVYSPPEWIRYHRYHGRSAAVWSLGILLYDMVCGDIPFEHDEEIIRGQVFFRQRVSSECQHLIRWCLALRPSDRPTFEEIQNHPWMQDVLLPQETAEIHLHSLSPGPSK

`CCn1cc(-c2cc3c(-c4cccc(N5CC[C@H](F)[C@H](N)C5)n4)n[nH]c3cn2)cn1` (relative stereo) [Example 465, cis-1-(6-(5-(1-ethyl-1H-pyrazol-4-yl)-1H-pyrazolo[3,4-c]pyridin-3-yl)pyridin-2-yl)-4-fluoropiperidin-3-amine] and `CCn1cc(-c2cc3c(-c4cccc(N5CCN[C@H](C)C5)n4)n[nH]c3cn2)cn1` [Example 397, (R)-5-(1-ethyl-1H-pyrazol-4-yl)-3-(6-(3-methylpiperazin-1-yl)pyridin-2-yl)-1H-pyrazolo[3,4-c]pyridine] are within 1.5-fold of each other in Ki: 0.063 nM for the first, 0.046 nM for the second.

First: Cn1cc(-c2cc3c(-c4cccc(N[C@H]5CC[C@@H](N)CC5)n4)n[nH]c3cn2)cn1 [Example 251, (1s,4s)-N1-(6-(5-(1-methyl-1H-pyrazol-4-yl)-1H-pyrazolo[3,4-c]pyridin-3-yl)pyridin-2-yl)cyclohexane-1,4-diamine]
Second: Cn1cc(-c2cc3c(-c4cccc(NCC5CCNCC5)n4)n[nH]c3cn2)cn1 [Example 183, 6-(5-(1-methyl-1H-pyrazol-4-yl)-1H-pyrazolo[3,4-c]pyridin-3-yl)-N-(piperidin-4-ylmethyl)pyridin-2-amine]
The Ki of the first is 11-fold lower: 0.04 nM for the first, 0.426 nM for the second.

`N[C@@H]1CCCCN(c2cccc(-c3n[nH]c4cnc(-c5cnn(CCF)c5)cc34)n2)C1` [Example 520, (R)-1-(6-(5-(1-(2-fluoroethyl)-1H-pyrazol-4-yl)-1H-pyrazolo[3,4-c]pyridin-3-yl)pyridin-2-yl)azepan-3-amine] and `Cn1cc(-c2cc3c(-c4cccc(N5CC[C@@H](N)C5)n4)n[nH]c3cn2)cn1` [Example 189, (R)-1-(6-(5-(1-methyl-1H-pyrazol-4-yl)-1H-pyrazolo[3,4-c]pyridin-3-yl)pyridin-2-yl)pyrrolidin-3-amine] are within 1.5-fold of each other in Ki: 0.098 nM for the first, 0.136 nM for the second.

First: Cn1cc(-c2cc3c(-c4ccnc(C5CCNCC5)n4)n[nH]c3cn2)cn1 [Example 439, 5-(1-methyl-1H-pyrazol-4-yl)-3-(2-(piperidin-4-yl)pyrimidin-4-yl)-1H-pyrazolo[3,4-c]pyridine]
Second: Cn1cc(-c2cc3c(-c4cccc(O[C@@H]5CCCNC5)n4)n[nH]c3cn2)cn1 [Example 264, (R)-5-(1-methyl-1H-pyrazol-4-yl)-3-(6-(piperidin-3-yloxy)pyridin-2-yl)-1H-pyrazolo[3,4-c]pyridine]
The Ki of the first is 2.1-fold higher: 0.571 nM for the first, 0.27 nM for the second.

Compared with `c1cc(-c2n[nH]c3cnc(-c4cncs4)cc23)nc(N2CCNCC2)c1` [Example 359, 5-(3-(6-(piperazin-1-yl)pyridin-2-yl)-1H-pyrazolo[3,4-c]pyridin-5-yl)thiazole], `Cc1cncc(-c2cc3c(-c4cccc(N5CCCNCC5)n4)n[nH]c3cn2)n1` [Example 522, 3-(6-(1,4-diazepan-1-yl)pyridin-2-yl)-5-(6-methylpyrazin-2-yl)-1H-pyrazolo[3,4-c]pyridine] is 3.9-fold lower in Ki: 0.074 nM for the first, 0.019 nM for the second.

Going from `N[C@H]1CCCN(c2ccc(-c3n[nH]c4cnc(-c5cccnc5)cc34)cn2)C1` [Example 196, (S)-1-(5-(5-(pyridin-3-yl)-1H-pyrazolo[3,4-c]pyridin-3-yl)pyridin-2-yl)piperidin-3-amine] to `NC1CCCN(c2cncc(-c3n[nH]c4cnc(-c5cccnc5)cc34)c2)CC1` (stereo not drawn) [Example 169, 1-(5-(5-(pyridin-3-yl)-1H-pyrazolo[3,4-c]pyridin-3-yl)pyridin-3-yl)azepan-4-amine], the Ki rises from 0.774 nM to 1.35 nM (1.7-fold).

Going from `C1=C(c2n[nH]c3cnc(-c4cccnc4)cc23)CCCO1` [Example 281, 3-(3,4-dihydro-2H-pyran-5-yl)-5-(pyridin-3-yl)-1H-pyrazolo[3,4-c]pyridine] to `N[C@H]1CCN(c2ccc(-c3n[nH]c4cnc(-c5cccnc5)cc34)nc2)C1=O` [Example 334, (S)-3-amino-1-(6-(5-(pyridin-3-yl)-1H-pyrazolo[3,4-c]pyridin-3-yl)pyridin-3-yl)pyrrolidin-2-one], the Ki falls from 28.8 nM to 1.57 nM (18-fold). The second binds more tightly here.

First: CCn1cc(-c2cc3c(-c4ccc(C5CC5)c(N5CCC[C@H](N)C5)n4)n[nH]c3cn2)cn1 [Example 506, (S)-1-(3-cyclopropyl-6-(5-(1-ethyl-1H-pyrazol-4-yl)-1H-pyrazolo[3,4-c]pyridin-3-yl)pyridin-2-yl)piperidin-3-amine]
Second: CCn1cc(-c2cc3c(-c4ccc(Br)c(N5CCC[C@H](N)C5)n4)n[nH]c3cn2)cn1 [Example 403, (S)-1-(3-bromo-6-(5-(1-ethyl-1H-pyrazol-4-yl)-1H-pyrazolo[3,4-c]pyridin-3-yl)pyridin-2-yl)piperidin-3-amine]
The Ki of the first is 1.9-fold lower: 0.021 nM for the first, 0.04 nM for the second. The first binds more tightly here.

First: CCn1cc(-c2cc3c(-c4ccc(Br)c(N5C[C@@H](N)C[C@@H](F)C5)n4)n[nH]c3cn2)cn1 [Example 454, (3S,5R)-1-(3-bromo-6-(5-(1-ethyl-1H-pyrazol-4-yl)-1H-pyrazolo[3,4-c]pyridin-3-yl)pyridin-2-yl)-5-fluoropiperidin-3-amine]
Second: O[C@@H]1CCCN(c2nc(-c3n[nH]c4cnc(-c5cccnc5)cc34)ccc2Br)C1 [Example 291, (R)-1-(3-bromo-6-(5-(pyridin-3-yl)-1H-pyrazolo[3,4-c]pyridin-3-yl)pyridin-2-yl)piperidin-3-ol]
The Ki of the first is 10-fold lower: 0.026 nM for the first, 0.261 nM for the second. The first binds more tightly here.

Compared with `NC1CCN(c2ccncc2-c2cc3c(-c4ccccc4F)n[nH]c3cn2)CC1` [Example 128, 1-(3-(3-(2-fluorophenyl)-1H-pyrazolo[3,4-c]pyridin-5-yl)pyridin-4-yl)piperidin-4-amine], `N[C@@H]1CCN(c2cncc(-c3cc4c(-c5ccccc5F)n[nH]c4cn3)c2)C1` [Example 192, (R)-1-(5-(3-(2-fluorophenyl)-1H-pyrazolo[3,4-c]pyridin-5-yl)pyridin-3-yl)pyrrolidin-3-amine] is 2900-fold lower in Ki: 1500 nM for the first, 0.511 nM for the second. The second binds more tightly here.

Going from `c1ccc(-c2n[nH]c3cnc(-c4ccoc4)cc23)cc1` [Example 185, 5-(furan-3-yl)-3-phenyl-1H-pyrazolo[3,4-c]pyridine] to `Fc1ccccc1-c1n[nH]c2cnc(-c3cncnc3)cc12` [Example 138, 3-(2-fluorophenyl)-5-(pyrimidin-5-yl)-1H-pyrazolo[3,4-c]pyridine], the Ki rises from 70.9 nM to 577 nM (8.1-fold).

Compared with `Cc1n[nH]c2cnc(-c3cncc(N4CCC[C@H](N)C4)n3)cc12` [Example 120, (S)-1-(6-(3-methyl-1H-pyrazolo[3,4-c]pyridin-5-yl)pyrazin-2-yl)piperidin-3-amine], `N[C@H]1CCCN(c2cccc(-c3n[nH]c4cnc(-n5ccnc5)cc34)n2)C1` [Example 380, (S)-1-(6-(5-(1H-imidazol-1-yl)-1H-pyrazolo[3,4-c]pyridin-3-yl)pyridin-2-yl)piperidin-3-amine] is 9.1-fold lower in Ki: 4.78 nM for the first, 0.523 nM for the second.

Going from `Fc1ccccc1-c1n[nH]c2cnc(-c3cnccc3OC[C@H]3CCNC3)cc12` [Example 211, (S)-3-(2-fluorophenyl)-5-(4-(pyrrolidin-3-ylmethoxy)pyridin-3-yl)-1H-pyrazolo[3,4-c]pyridine] to `Cc1ccc(-c2n[nH]c3cnc(-c4cccnc4)cc23)nc1N1CC[C@H](O)C1` [Example 305, (S)-1-(3-methyl-6-(5-(pyridin-3-yl)-1H-pyrazolo[3,4-c]pyridin-3-yl)pyridin-2-yl)pyrrolidin-3-ol], the Ki falls from 1.28 nM to 0.091 nM (14-fold).

First: N#CCc1cc2c(-c3cccc(N4CCNCC4)n3)n[nH]c2cn1 [Example 235, 2-(3-(6-(piperazin-1-yl)pyridin-2-yl)-1H-pyrazolo[3,4-c]pyridin-5-yl)acetonitrile]
Second: Cn1cc(-c2cc3c(-c4cccc(N5CCOCC5)n4)n[nH]c3cn2)cn1 [Example 420, 4-(6-(5-(1-methyl-1H-pyrazol-4-yl)-1H-pyrazolo[3,4-c]pyridin-3-yl)pyridin-2-yl)morpholine]
The Ki of the first is 1600-fold higher: 583 nM for the first, 0.368 nM for the second. The second binds more tightly here.

Compared with `Cn1cc(-c2cc3c(-c4cccc(N5CCC(O)CC5)n4)n[nH]c3cn2)cn1` [Example 294, 1-(6-(5-(1-methyl-1H-pyrazol-4-yl)-1H-pyrazolo[3,4-c]pyridin-3-yl)pyridin-2-yl)piperidin-4-ol], `c1cncc(-c2cc3c(-c4cccc(N5CCC(C6CCNCC6)CC5)n4)n[nH]c3cn2)c1` [Example 273, 3-(6-(4,4′-bipiperidin-1-yl)pyridin-2-yl)-5-(pyridin-3-yl)-1H-pyrazolo[3,4-c]pyridine] is 2.4-fold lower in Ki: 0.168 nM for the first, 0.07 nM for the second. The second binds more tightly here.

Compared with `N[C@H]1CCC[C@@H](Oc2cccc(-c3n[nH]c4cnc(-c5cccnc5)cc34)n2)C1` [Example 299, (1S,3R)-3-(6-(5-(pyridin-3-yl)-1H-pyrazolo[3,4-c]pyridin-3-yl)pyridin-2-yloxy)cyclohexanamine], `C[C@@]1(N)CCCN(c2cccc(-c3n[nH]c4cnc(-c5cccnc5)cc34)n2)C1` [Example 347, (R)-3-methyl-1-(6-(5-(pyridin-3-yl)-1H-pyrazolo[3,4-c]pyridin-3-yl)pyridin-2-yl)piperidin-3-amine] is 6-fold lower in Ki: 0.664 nM for the first, 0.11 nM for the second.

In the case of `CCn1cc(-c2cc3c(-c4cc(CO)ccn4)n[nH]c3cn2)cn1` [Example 498, (2-(5-(1-ethyl-1H-pyrazol-4-yl)-1H-pyrazolo[3,4-c]pyridin-3-yl)pyridin-4-yl)methanol], the Ki is reported as 17.2 nM.
